Test results: patent publication US20090017003A1, “THIOSULFONATE ANTI-INFLAMMATORY AGENTS” (SULFIDRIS S.R.L., priority 2006, published 2009)

Columns and labels:
[1] = type: in vivo; conditions: male rats, once daily by gavage for three days, diclofenac 10 mg/kg, compound of example 5 14 mg/kg
Experimental: Thirty male rats (150-200 g) were divided into three groups of 10 animals/group and treated with vehicle, diclofenac (10 mg/kg) and the compound of example 5 (14 mg/kg) for three days once daily by gavage. The vehicle consisted in 1 mL of 0.5% carboxymethylcellulose (CMC). At the fifth day, survival animals were sacrificed, by an overdose of ether, and autopsied to detect any pathological changes, particularly in the gastrointestinal tract. Prostaglandin E2 was evaluated in the liver homogenate by standard enzyme immunoassay procedure as described by Warner T D et al. (J.P.E.T. 2004, 310, 642-7).

PC-3 [2] = conditions: PC-3 prostate tumour cells; Engl T. et al., Life Sciences 2005; cited from earlier work
DU-145 [3] = conditions: DU-145 prostate tumour cells; Engl T. et al., Life Sciences 2005; cited from earlier work
DU-145 [4] = test: Growth and adhesion to endothelial cells of DU-145 prostate tumour cells in vitro; type: cell-based
Experimental: (§1) The compound described in example 6 has been tested in vitro on 2 prostate tumour cells (DU-145 and PC-3). […] The activity reported in the literature for the parent compound (valproic acid) on the same tumour cells is achieved at much higher concentrations (1 mM). (Engl. T et al. Life Sciences, 2005).

PC-3 [5] = test: Growth and adhesion to endothelial cells of PC-3 prostate tumour cells in vitro; type: cell-based
Experimental: as §1

gp91^phox = test: gp91phox expression by cultured pulmonary endothelial cells; type: cell-based, porcine; conditions: 16 hr incubation of pig pulmonary artery cells with TNFα
Source text: (§2) Effects of the compound prepared in example 4 on superoxide formation, gp91^phox expression by porcine cultured pulmonary endothelial cells and intact cavernosal tissue were studied according to Muzzaffar S. et al. (Br. J. Pharmacol. 2005 September; 146(1):109-17).

superoxide formation = test: Superoxide formation by cultured pulmonary endothelial cells; type: cell-based, porcine
Source text: as §2

CS(=O)(=O)SCCOC(=O)Cc1cccc(Nc2c(Cl)cccc2Cl)c1 [Example 5, [3-(2,6-dichloro-phenylamino)-phenyl]-acetic acid 2-methanesulfonylsulfanyl-ethyl ester]
% gastrointestinal ulcer ([1]; autopsy at fifth day): 10%

CCCC(CCC)C(=O)O [valproic acid]
concentration at which activity is achieved (literature) (PC-3 [2]): 1 mM | concentration at which activity is achieved (literature) (DU-145 [3]): 1 mM

CCCC(CCC)C(=O)OCCSS(C)(=O)=O [Example 6, 2-propyl-pentanoic acid 2-methanesulfonylsulfanyl-ethyl ester]
concentration range inhibiting adhesion to endothelial cells (DU-145 [4]): 5 to 30 µM | concentration range inhibiting growth (DU-145 [4]): 5 to 30 µM | concentration range inhibiting adhesion to endothelial cells (PC-3 [5]): 5 to 30 µM | concentration range inhibiting growth (PC-3 [5]): 5 to 30 µM

O=C(O)Cc1ccccc1Nc1c(Cl)cccc1Cl [Diclofenac, diclofenac, reference compound]
% deaths ([1]; 10 animals/group): 40%

CCCc1nn(C)c2c(=O)[nH]c(-c3cc(S(=O)(=O)N4CCN(CC(=O)OCCSS(C)(=O)=O)CC4)ccc3OCC)nc12 [Example 4, {4-[4-ethoxy-3-(1-methyl-7-oxo-3-propyl-6,7-dihydro-1H-pyrazolo[4,3-d]pyrimidin-5-yl)-benzenesulfonyl]-piperazin-1-yl}-acetic acid 2-methanesulfonylsulfanyl-ethyl ester]
inhibition of gp91phox expression (gp91^phox): inhibited | inhibition of superoxide formation (superoxide formation; 16 hr incubation of pig pulmonary artery cells with TNFα): potent inhibitor | inhibition of superoxide formation (superoxide formation; 16 hr incubation of pig pulmonary artery cells with thromboxane A2 analogue U46619): potent inhibitor | concentration reducing superoxide formation compared with sildenafil citrate (superoxide formation; response to inflammatory mediators): lower concentrations than sildenafil citrate
